According to patent US9981940B2, “Aryl sulfide derivatives and aryl sulfoxide derivatives as acaricides and insecticides” (BAYER CROPSCIENCE AKTIENGESELLSCHAFT, priority 2013, dated 2018):

Tests used:
[1] = log P by HPLC (OECD Guideline 117), method [a] acidic range; type: physicochemical; conditions: HPLC, method [a] acidic range
Description: (§1) The log P values were determined analogously to OECD Guideline 117 (EC Directive 92/69/EEC) by HPLC (high-performance liquid chromatography) using reversed-phase columns (C 18), by the following methods:
[a] The LC-MS determination in the acidic range is effected at pH 2.7 with 0.1% aqueous formic acid and acetonitrile (contains 0.1% formic acid) as eluents; linear gradient from 10% acetonitrile to 95% acetonitrile.

Tetranychus urticae = Tetranychus urticae spray test, OP-resistant (TETRUR); type: in vivo; conditions: after 6 days
Description: Tetranychus urticae—Spray Test, OP-Resistant (TETRUR)
• Solvent: 78.0 parts by weight of acetone • 1.5 parts by weight of dimethylformamide • Emulsifier: 0.5 part by weight of alkylaryl polyglycol ether
To produce an appropriate active ingredient formulation, 1 part by weight of active ingredient is mixed with the specified amounts of solvent and emulsifier, and the concentrate is diluted to the desired concentration with emulsifier-containing water.
Discs of bean leaves (Phaseolus vulgaris) infested by all stages of the greenhouse red spider mite (Tetranychus urticae) are sprayed with an active ingredient formulation of the desired concentration.
After 6 days, the efficacy in % is determined 100% means that all the spider mites have been killed; 0% means that none of the spider mites have been killed.

[2] = log P by HPLC (OECD Guideline 117), method [b] neutral range; type: physicochemical; conditions: HPLC, method [b] neutral range
Description: as §1
[b] The LC-MS determination in the neutral range is effected at pH 7.8 with 0.001 molar aqueous ammonium hydrogencarbonate solution and acetonitrile as eluents; linear gradient from 10% acetonitrile to 95% acetonitrile.

SMILES | logP[a] [1] | logP[b] [2] | efficacy (Tetranychus urticae; application rate of 500 g/ha) | efficacy (Tetranychus urticae; application rate of 100 g/ha)
CCOCc1nn(-c2cc(SCC(F)(F)F)c(C)cc2F)c(=O)n1C1CC1 [Example 73] | 3.33 | 3.27 | 90% | 
COCCc1nn(-c2cc(SCC(F)(F)F)c(C)cc2F)c(=O)n1C1CC1 [Example 75] | 2.97 | 2.89 | 100% | 
CCc1nn(-c2cc(SCC(F)(F)F)c(C)cc2F)c(=O)n1C1CC1 [Example 77] | 3.24 | 3.18 | 100% | 
CCCc1nn(-c2cc(SCC(F)(F)F)c(C)cc2F)c(=O)n1C1CC1 [Example 79] | 3.64 | 3.56 | 100% | 
Cc1cc(F)c(-n2nc(CC(C)C)n(C3CC3)c2=O)cc1SCC(F)(F)F [Example 83] | 3.99 | 3.93 | 100% | 
CCC(C)c1nn(-c2cc(SCC(F)(F)F)c(C)cc2F)c(=O)n1C1CC1 (stereo not drawn) [Example 85] | 4.01 | 3.94 | 100% | 
Cc1cc(F)c(-n2nc(C3CCC3)n(C3CC3)c2=O)cc1SCC(F)(F)F [Example 87] | 3.85 | 3.77 | 100% | 
COCCn1c(C(F)(F)F)nn(-c2cc(SCC(F)(F)F)c(C)cc2F)c1=O [Example 89] | 3.80 | 3.73 | 100% | 
COc1nn(-c2ccc(C)c(SCC(F)(F)F)c2)c(=O)n1C1CC1 [Example 90] | 3.74 | 3.67 | 100% | 
Cc1ccc(-n2nc(OC(C)C)n(C3CC3)c2=O)cc1SCC(F)(F)F [Example 91] | 4.59 | 4.54 | 100% | 
COc1nn(-c2cc([S+]([O-])CC(F)(F)F)c(Cl)cc2Cl)c(=O)n1C (stereo not drawn) [Example 97] | 2.26 | 2.24 | 90% | 
Cc1cc(F)c(-n2nc(OC(C)C)n(C3CC3)c2=O)cc1[S+]([O-])CC(F)(F)F (stereo not drawn) [Example 100] | 2.82 | 2.79 | 100% | 
CCCOc1nn(-c2cc([S+]([O-])CC(F)(F)F)c(C)cc2F)c(=O)n1C1CC1 (stereo not drawn) [Example 112] | 2.83 | 2.79 | 90% | 
CCCOc1nn(-c2cc(SCC(F)(F)F)c(C)cc2F)c(=O)n1C1CC1 [Example 113] | 4.00 | 3.92 | 90% | 

The next lines start with results.

logP[a] [1] | logP[b] [2] | SMILES | efficacy (Tetranychus urticae; application rate of 500 g/ha) | efficacy (Tetranychus urticae; application rate of 100 g/ha)
3.32 | 3.27 | COc1nn(-c2cc(SCC(F)(F)F)c(Cl)cc2F)c(=O)n1C1CC1 [Example 114] | 100% | 
3.58 | 3.44 | CCOc1nn(-c2cc(SCC(F)(F)F)c(C)cc2F)c(=O)n1C1CC1 [Example 120] | 100% | 
2.47 | 2.43 | CCOc1nn(-c2cc([S+]([O-])CC(F)(F)F)c(C)cc2F)c(=O)n1C1CC1 (stereo not drawn) [Example 121] | 100% | 
4.19 | 4.04 | CCOc1nn(-c2ccc(C)c(SCC(F)(F)F)c2)c(=O)n1C1CC1 [Example 122] | 100% | 
4.66 | 4.57 | CCCOc1nn(-c2ccc(C)c(SCC(F)(F)F)c2)c(=O)n1C1CC1 [Example 123] | 100% | 
3.24 | 3.20 | CCCCOc1nn(-c2cc([S+]([O-])CC(F)(F)F)c(C)cc2F)c(=O)n1C1CC1 (stereo not drawn) [Example 124] |  | 90%
4.41 | 4.35 | CCCCOc1nn(-c2cc(SCC(F)(F)F)c(C)cc2F)c(=O)n1C1CC1 [Example 125] | 90% | 
5.11 | 5.02 | CCCCOc1nn(-c2ccc(C)c(SCC(F)(F)F)c2)c(=O)n1C1CC1 [Example 126] | 90% | 
